Values of other authors as cited in patent US20030207846A1, “Treatment of pain, inflammation, and inflammation-related disorders with a combination of a cyclooxygenase-2 selective inhibitor and aspirin” (Pharmacia Corporation, priority 2002, published 2003).

Experiments:
[1] = system: platelet function
[2] = system: upper GI tract; conditions: low-dose 75-300 mg/day
[3] = system: platelet aggregation and ex-vivo serum-generated thromboxane B2 production; conditions: healthy human subjects

Structure (SMILES) | inhibition of platelet function ([1]; 40 mg, conditions of limited compliance) | efficacy as an antiplatelet agent ([1]; 100-300 mg/day, plain or slow release form) | risk of upper GI tract complications [2] | tolerability ([3]; alone or in combination with the aspirin) | effect on the anti-platelet effects of aspirin (inhibition of platelet aggregation and ex-vivo serum-generated thromboxane B2 production) ([3]; rofecoxib 50 mg/day with aspirin 81 mg/day)
CC(=O)Oc1ccccc1C(=O)O [aspirin, 2-(acetyloxy)benzoic acid] | not sufficient to inhibit platelet function | very effective | increased the risk of upper GI tract complications | – | –
CS(=O)(=O)c1ccc(C2=C(c3ccccc3)C(=O)OC2)cc1 [rofecoxib] | – | – | – | well-tolerated | did not alter the anti-platelet effects of the aspirin
